Experimental data taken from patent US10561606B2, “Injectable long-acting local anesthetic semi-solid gel formulations” (Mira Pharma Corporation, priority 2017, dated 2020).
Counter-ions that a name gives are not always drawn. Blank lines part the entries; values can stand above or below the molecule they belong to.

What was measured:
[1] = BASF MSDS sheet; cited from earlier work
[2] = cited from earlier work
[3] = Solubility/loading of local anesthetic in oils, castor oil and semi-solid vehicle; type: physicochemical
sciatic nerve = details: cited from earlier work
[4] = limited by low solubility in the vehicle; cited from earlier work
[5] = in poly(lactic acid-co-castor oil), single injection

SMILES: CCCCN1CCCCC1C(=O)Nc1c(C)cccc1C (stereo not drawn) [bupivacaine hydrochloride]
- water solubility [1]: 600 mg/mL

- solubility in corn oil [3]: 2.8 wt %
- solubility in olive oil [3]: 2.5 wt %
- solubility in sesame oil [3]: 3.0 wt %
- solubility in typical vegetable oils [3]: less than 3 wt %
- solubility in vegetable oil [3]: 2.5 wt %
SMILES: CCCCN1CCCCC1C(=O)Nc1c(C)cccc1C (stereo not drawn) [bupivacaine]
- release of bupivacaine from the oil ([2]; fractionated coconut oil, in less than two hours, rotating dialysis cell): 80%
- stored bupivacaine released during one week ([2]; from poly(lactic acid-co-castor oil)): 60%
- incorporated drug released over one week in vitro ([2]; from poly(sebacic-co-ricinoleic acid)): 70%
- sciatic nerve blockade prolonged to (sciatic nerve; 10% (w/v) in poly(sebacic-co-ricinoleic acid), from 8 hours): 30 h
- duration of nerve block (sciatic nerve; in poly(lactic acid-co-castor oil) at 10% (w/v)): 1 to 2 days
- duration of sensory blockade (sciatic nerve; in poly(lactic acid-co-castor oil) at 15% (w/v)): 96 h
- motor blockade (sciatic nerve; [5]): 64 h
- sensory blockade (sciatic nerve; [5]): 96 h

SMILES: Cc1cccc(C)c1NC(=O)C1CCCCN1C (stereo not drawn) [mepivacaine]
- amount that can be loaded into polyorthoester vehicle [4]: about 3 wt %
